Data as given in US9228224B2, “Method for assaying OGFOD1 activity” (ISIS INNOVATION LIMITED, priority 2011, dated 2016).

Key:
[1] = target: T1, OGFOD1 (hsOGFOD1_FL) (Homo sapiens, UniProt Q8N543); assay: Thermal stability shift assay (SYPRO Orange); format: binding; conditions: change in apparent protein melting temperature; compound 20 μM, 1 μM hsOGFOD1_FL, 50 μM MnCl2
T1 construct: His6 tag (N-terminal pET-28a leader); made in house; host or cells: E. coli BL21(DE3)
T1 sequence (Q8N543 1-542): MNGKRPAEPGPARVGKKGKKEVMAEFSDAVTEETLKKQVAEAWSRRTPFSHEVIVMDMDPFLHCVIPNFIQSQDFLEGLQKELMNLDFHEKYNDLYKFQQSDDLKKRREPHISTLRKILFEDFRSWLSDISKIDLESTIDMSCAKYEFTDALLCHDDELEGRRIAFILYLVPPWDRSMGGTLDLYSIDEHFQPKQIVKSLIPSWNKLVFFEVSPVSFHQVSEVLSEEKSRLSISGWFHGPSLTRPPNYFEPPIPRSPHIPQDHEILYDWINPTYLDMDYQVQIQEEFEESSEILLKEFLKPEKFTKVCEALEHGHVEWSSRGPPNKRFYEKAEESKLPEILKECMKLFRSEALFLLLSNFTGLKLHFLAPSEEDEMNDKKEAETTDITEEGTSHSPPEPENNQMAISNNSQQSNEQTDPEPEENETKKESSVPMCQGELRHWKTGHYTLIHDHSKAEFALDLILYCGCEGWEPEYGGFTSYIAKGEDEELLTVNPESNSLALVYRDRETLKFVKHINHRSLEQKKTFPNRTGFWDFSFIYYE
Experimental: Assays were conducted in 50 mM HEPES buffer, 150 mM NaCl, pH 7.5. A stock solution of MnCl2 (500 mM) in 20 mM HCl was prepared, and diluted to 5 mM with water. A master mix containing 2.085 mL buffer, 21 μL MnCl2 (5 mM, 50 μM final), 21 μL hsOGFOD1_FL (100 μM, 1 μM final), and 2.1 μL SYPRO Orange dye was prepared. The screen was conducted using stock solutions of compounds (400 μIM in DMSO) at a final concentration of 20 μM, by mixing 1 μL compound stock solution with 19 μL assay master mix. Incubations were performed in a white 96-well RT-PCR plate and subjected to thermal cycling as per an established protocol. Data was analysed in Microsoft Excel and GraphPad Prism.
The effect of small molecules on the stability of proteins to thermal denaturation was assessed by the change in apparent protein melting temperature, defined as the temperature at which equal amounts of folded and unfolded protein exist in solution. Unfolding was quantified by measurement of the fluorescence increase of SYPRO® Orange dye (Invitrogen) upon binding to hydrophobic residues that are exposed during unfolding. Approximately 400 small-molecule compounds were tested at a final concentration of 20 μM. Stabilization data for selected compounds are shown in below. Structures of the compounds are set out below.

[2] = target: T2, OGFOD1 (Homo sapiens, UniProt Q8N543); assay: MALDI assay of OGFOD1 specificity towards RPS23 and RPS23-like peptides; format: biochemical; conditions: peptide as substrate; 4 μM OGFOD1/100 μM peptide, 37° C., 30 min; symbols not defined
T2 construct: His6 tag (N-terminal pET-28a leader); made in house; host or cells: E. coli BL21(DE3)
T2 sequence (Q8N543 1-542): T1 sequence (Q8N543 1-542)
Experimental: To investigate the specificity of OGFOD1 towards variations in the sequence and length, multiple corresponding to RPS23 and RPS23-like sequences were synthesized and tested. MALDI assays were performed using a 1:25 protein:peptide (4 μM/100 μM) ratio, with incubation at 37° C. for 30 min.
Mutation of prolyl to alanine or isoleucine residues completely abolished hydroxylation, providing further evidence for OGFOD1 acting as a prolyl hydroxylase. […] This observation is consistent with the high evolutionary conservation of the amino acids following, but not of those preceding the prolyl (Pro-62) residue in RPS23.

[3] = target: T2, OGFOD1; assay: MALDI-based hydroxylation assay, inhibitor screen; format: biochemical; conditions: general statement in the description, no conditions given
Experimental: A library of 150 compounds comprising known and potential inhibitors of 2OG oxygenases was screened against OGFOD1 by a MALDI-based hydroxylation assay. Single-point measurements were conducted in duplicate, using 4 μM OGFOD1 at 100 μM final compound concentration in the presence of excess (300 μM) 2OG, with incubation at 37° C. for 30 min.

[4] = target: T2, OGFOD1; assay: OGFOD1-mediated hydroxylation of RPS23 20mer peptide with generic 2OG oxygenase inhibitors; format: biochemical; conditions: 1 mM inhibitor
Experimental: OGFOD1-mediated hydroxylation of the initially identified 20mer peptide sequence of human RPS23 was strictly dependent on presence of 2OG and Fe(II), and hydroxylation was reduced in presence of 1 mM of generic 2OG oxygenase inhibitors such as N-oxalyl glycine (NOG), pyridine 2,4-dicarboxylic acid (2,4-PDCA) and transition metal ions such as Co^II.

[5] = target: T3, full-length OGFOD1 (Homo sapiens, UniProt Q8N543); assay: 2OG turnover assay; format: biochemical; conditions: 1 mM inhibitor, 37° C., 20 min
T3 construct: His6 tag (N-terminal pET-28a leader); made in house; host or cells: E. coli BL21(DE3)
T3 sequence (Q8N543 1-542): T1 sequence (Q8N543 1-542)
Experimental: Values shown are averages of two or three experiments. Error bars represent standard deviations. The assay was carried out for 20 min at 37° C. using 8 μM recombinant full-length human OGFOD1 (SEQ ID NO:1), 288 μM 2OG, 3.7 μM 1-[^14C]-2OG (specific activity […], stock concentration 1.83 mM), RPS23 peptide, 100 μM (NH4)2Fe(SO4)2, 4 mM ascorbate, 0.66 mg/ml catalase, 1 mM DTT, 50 mM Tris.HCl pH 7.5, and with one of OGFOD1, (NH4)2Fe(SO4)2 and ascorbate missing from the assay. The assay was also performed in the presence of 1 mM pyridine 2,4-dicarboxylic acid (2,4-PDCA).
Constructs of OGFOD1 encoding full-length protein or its C-terminal domain were tested for enzymatic activity using a 2OG turnover assay (Kivirikko and Myllyla (1982) Methods in Enzymology 82: […]). […]
These were diluted to a total volume of 100 μl with 50 mM Tris-Cl buffer, pH 7.5. […] The Eppendorf tubes containing the hyamine hydroxide were transferred to scintillation vials, mixed with 5 mL OptiPhase Liquid Scintillation Cocktail (Fisher Scientific) and total ^14C counts quantified using a Beckman LS6500 Multi-Purpose Scintillation Counter. Conversion of 2OG was calculated from the percentage of 1-[^14C]-2OG that had been converted into gaseous ^14CO2. […]

Compound	Stabilization (° C.) [1]	further results
O=C(O)c1ccnc(-c2cc(C(=O)O)ccn2)c1 [Compound 5]	+7.5 °C	–
O=C(O)CCC(=O)Nc1cc2ccccc2cn1 [Compound 1]	+8.4 °C	–
CODD: PHD2 C-terminal oxygen-dependent degradation domain (CODD) substrate of HIF-1α	–	Hydroxylation [2]: No hydroxylation
N#Cc1ccc2c(=O)c(C(=O)O)c[nH]c2c1 [Compound 7]	+7.5 °C	–
O=C(O)CNC(=O)C(=O)O [N-oxalylglycine]	–	inhibition of OGFOD1 prolyl hydroxylase activity [3]: inhibitory; hydroxylation of RPS23 20mer peptide [4]: reduced
O=C(O)CCNC(=O)c1nc2ccccc2cc1O [Compound 10]	+7.2 °C	–
O=C(O)CCC(=O)Nc1ccc(Br)cn1 [Compound 6]	+7.0 °C	–
O=C(O)c1cc(O)c(O)c(O)c1 [gallic acid]	–	inhibition of OGFOD1 prolyl hydroxylase activity [3]: inhibitory
O=C(O)CCC(=O)NNS(=O)(=O)c1ccccc1 [Compound 3]	+7.1 °C	–
O=C(O)c1ccnc(C(=O)O)c1 [Compound 11, Pyridine 2,4-dicarboxylic acid]	+6.7 °C	inhibition of OGFOD1 prolyl hydroxylase activity [3]: inhibitory; OGFOD1-catalyzed 2OG turnover [5]: inhibited; hydroxylation of RPS23 20mer peptide [4]: reduced
CCC(=O)C1C(=O)CC(C(=O)O)CC1=O (centres unmarked) [Compound 8, Prohexadione]	+6.9 °C	–
O=C(O)CCC(=O)NNC(=O)c1ccc2ccccc2c1 [Compound 2]	+7.1 °C	–
O=C(O)CNC(=O)c1nc(Cl)c2ccccc2c1O [Compound 4, 2-(1-Chloro-4-hydroxyisoquinoline-3-carboxamido)acetic acid]	+7.0 °C	inhibition of OGFOD1 prolyl hydroxylase activity [3]: inhibit OGFOD1; inhibition of OGFOD1 prolyl hydroxylase activity ([3]; listed as FG2216): inhibitory
CC(NC(=O)C(=O)O)C(=O)O (centres unmarked) [Compound 9]	+6.3 °C	–
